The results in this text go back to patent US11191773B2, “Methods of treatment for bacterial infections” (President and Fellows of Harvard College, priority 2017, dated 2021).

The test system of assay [1] is lptB1(G33C). As to the kind of experiment: Disk diffusion assay. Format: cell-based, E. coli. On the procedure:
(§1) Zones of inhibition were measured in disk diffusion assays of wild type, IptB1, and suppressors IptB1(R144H) and IptB1(G33C) pictured in FIG. 6B. Assays were conducted with 6-mm disks. Numbers outside of parentheses report the diameter of the zone of total growth inhibition (in mm), while numbers inside parenthesis report the diameter of the zone of partial growth inhibition.
(§2) Disk diffusion assays were performed as described in Sherman et al., Proc. Natl. Acad. Sci. USA 2014, 111, 4982-4987. Premade Sensi-Disc (BD-Beckton, Dickinson and Company) were used for bacitracin 10IU, erythromycin 15 μg, novobiocin 30 μg, and rifampin 5 μg.
Background: A growth-free zone around the sample is the usual read-out of agar diffusion tests.

In assay [2] the test system is lptB1(R144H). As to the kind of experiment: Disk diffusion assay. The conditions noted are these: for Zone of inhibition, diameter of the zone of total growth inhibition: 6-mm disks, bacitracin 10IU, erythromycin 15 μg, novobiocin 30 μg, rifampin 5 μg, nalidixic acid 5 μg. In kind it is cell-based, E. coli. On the procedure:
as §1, §2

For assay [3], the system named is lptB1. As to the kind of experiment: Disk diffusion assay. The conditions noted are these: for Zone of inhibition, diameter of the zone of total growth inhibition: 6-mm disks, bacitracin 10IU, erythromycin 15 μg, novobiocin 30 μg, rifampin 5 μg, nalidixic acid 5 μg; for zone of inhibition at 15 µg/disc / zone of inhibition at 5 µg/disc: Escherichia coli. In kind it is cell-based, E. coli. On the procedure: as §1, §2

In assay [4] the test system is wild type. As to the kind of experiment: Disk diffusion assay. Format: cell-based, E. coli. The conditions noted are these: 6-mm disks, bacitracin 10IU, erythromycin 15 μg, novobiocin 30 μg, rifampin 5 μg, nalidixic acid 5 μg. On the procedure: as §1, §2
Assay [5] has as its target T1, LptB (Escherichia coli, UniProt P0A9V1).
T1 construct: LptB-His (full-length LptB with a C-terminal His8 tag); His8 (C); made in house; host or cells: E. coli KRX (Promega)
As to the kind of experiment: Fbn-LptB binding assay (19F NMR linewidth). Set-up: species or system E. coli. On the procedure:
FIG. 12 is a graph showing the ^19F NMR linewidth of fluorobiocin (fbn) plotted vs. log[LptB]. Data were analyzed with GraphPad Prism 7 software using a nonlinear fit, log(agonist) vs. response with an R^2=0.9909.
We soaked novobiocin into LptB-ADP crystals and obtained a 2.0-Å structure of a co-complex (FIG. 7A, FIG. 11). ADP is still present in the co-complex, and novobiocin binds adjacent to the groove in LptB that accommodates the coupling helices from LptFG (FIG. 7B, FIG. 11). Coupling helices are a conserved motif in ABC systems that connect the transmembrane domains (here, LptFG) to the nucleotide-binding domains (here, LptB). […] This residue is invariant in LptB, and non-conservative substitutions at this position are lethal because they disrupt proper formation of the LptB2FG complex. Novobiocin thus binds a critical position at the LptBLptFG interface. To estimate the affinity of novobiocin for LptB, we synthesized an otherwise identical analogue in which a phenolic hydroxyl was substituted with a 19F-label (fluorobiocin, FIG. 8A).
5 mL of the buffered Fbn ligand solution was prepared by mixing 200 μL of 25X TBS pH 8.0, 125 μL 200 mM ADP pH 7.0, 125 μL 200 mM MgCl2, 4.43 μL of 56.5 mM Fbn, 4.55 mL of D20. Final [Tris-Cl]=50 mM, [NaCl]=150 mM, [ADP]=5 mM, [MgCl2]=5 mM, [Fbn]=50 μM. […]

The subject of assay [6] is IptFG(ch) mutant. Nature of the assay: Rescue of growth of coupling helix mutant (plating and disk assays). Format: cell-based, E. coli. The conditions noted are these: disks on LB plates, each disk 5 μg compound (FIG. 15). On the procedure: FIG. 8B is a series of pictures of bacterial overnight cultures grown in minimal medium. The cultures were serially diluted ten-fold and spotted onto LB agar plates with and without compounds.
FIG. 15 is a picture of bacterial lawns grown on plates in the presence of disks containing antibiotics. […] Strains were grown overnight in minimal media and then plated on LB plates. Each disk contained 5 μg compound.
The coupling helices in LptFG each contain a strictly-conserved glutamate, and changing both glutamates to alanine (IptFG(ch)) causes a lethal loss of function (FIG. 8B, LB panel). […] Because novobiocin also contacts R91 (FIG. 7C), we speculated that it might rescue growth of IptFG(ch) by masking the charge. […] We conclude that novobiocin suppresses Lpt defects in vivo by interacting with LptB at R91; therefore, novobiocin interacts with LptB in cells in a similar manner to that observed in the crystal structure.
as §2
Efficiency of plating assays were performed on indicated media using the method described in Butler et al., J. Bacteriol. 2013, 195, 4639-4649.

Where [7] appears, read: 6-mm disks, bacitracin 10IU, erythromycin 15 μg, novobiocin 30 μg, rifampin 5 μg, nalidixic acid 5 μg.
Setting [8] is: Escherichia coli, read-out: Zone of inhibition, diameter of the zone of partial growth inhibition (in parentheses).
[9] abbreviates: read-out: Zone of inhibition, diameter of the zone of partial growth inhibition (in parentheses).
The mark [10] stands for this setting: read-out: Zone of inhibition, diameter of the zone of total growth inhibition.
Setting [11] is: Escherichia coli, read-out: Zone of inhibition, diameter of the zone of total growth inhibition.

Structures are written as SMILES. Read-outs that look alike come from different tables or passages of the source. Bridge positions count the residues as written; N and C are the ends. Square brackets hold non-standard residues; d marks the D form. Peptide text beside a SMILES is read from it. * marks the point of attachment. Ileψ(thiazoline)Cys = CC[C@H](C)[C@H](N)C1=N[C@H](C(=O)*)CS1; dOrn = NCCC[C@@H](N)C(=O)O

T1 sequence (P0A9V1 whole entry): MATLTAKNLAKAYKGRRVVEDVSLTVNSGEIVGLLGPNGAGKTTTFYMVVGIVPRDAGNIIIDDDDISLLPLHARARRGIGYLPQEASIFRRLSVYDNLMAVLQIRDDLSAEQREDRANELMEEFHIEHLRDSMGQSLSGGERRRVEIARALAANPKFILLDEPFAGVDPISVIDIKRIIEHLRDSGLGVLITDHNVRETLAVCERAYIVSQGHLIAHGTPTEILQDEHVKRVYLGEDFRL

`CC[C@H](C)[C@H](N)C1=N[C@H](C(=O)N[C@@H](CC(C)C)C(=O)N[C@H](CCC(=O)O)C(=O)N[C@H](C(=O)N[C@H]2CCCCNC(=O)[C@H](CC(N)=O)NC(=O)[C@@H](CC(=O)O)NC(=O)[C@H](Cc3cnc[nH]3)NC(=O)[C@@H](Cc3ccccc3)NC(=O)[C@H]([C@@H](C)CC)NC(=O)[C@@H](CCCN)NC2=O)[C@@H](C)CC)CS1` [Bacitracin] ({Ileψ(thiazoline)Cys}-L[dE]IK[dOrn]I[dF]H[dD]N; lactam 4-C): in assay [1] (setting [7]), the “Zone of inhibition, diameter of the zone of partial growth inhibition (in parentheses)” value is reported as “(8) mm”. The figures for the “Zone of inhibition, diameter of the zone of total growth inhibition” value in assay [2], in assay [3] and in assay [4] were 17 mm, 17 mm and less than 6 mm, respectively.
With `CO[C@@H]1[C@@H](OC(N)=O)[C@@H](O)[C@H](Oc2ccc3c(O)c(NC(=O)c4ccc(F)c(CC=C(C)C)c4)c(=O)oc3c2C)OC1(C)C` [fluorobiocin, (3R,4S,5R,6R)-6-((3-(4-fluoro-3-(3-methylbut-2-en-1-yl)benzamido)-4-hydroxy-8-methyl-2-oxo-2H-chromen-7-yl)oxy)-5-hydroxy-3-methoxy-2,2-dimethyltetrahydro-2H-pyran-4-yl carbamate], in assay [5] (19F NMR linewidth vs. log[LptB], nonlinear fit, [Fbn]=50 μM, 5 mM ADP), the affinity, expressed as Kd, was 18 µM. In assay [5] (Solution NMR binding experiments), the “affinity for LptB in words” value was “low micromolar binder”.
`CO[C@H]1/C=C/O[C@@]2(C)Oc3c(C)c(O)c4c(O)c(c(/C=N/N5CCN(C)CC5)c(O)c4c3C2=O)NC(=O)/C(C)=C\C=C\[C@H](C)[C@H](O)[C@@H](C)[C@@H](O)[C@@H](C)[C@H](OC(C)=O)[C@@H]1C` [Rifampicin]: the “Zone of inhibition, diameter of the zone of total growth inhibition” value was 9 mm in assay [1] (setting [7]), 24 mm in assay [2], 17 mm in assay [3] and 8 mm in assay [4]. Also, the “Zone of inhibition, diameter of the zone of partial growth inhibition (in parentheses)” value in assay [4] is given as 9 mm.
As for `CC[C@H]1OC(=O)[C@H](C)[C@@H](O[C@H]2C[C@@](C)(OC)[C@@H](O)[C@H](C)O2)[C@H](C)[C@@H](O[C@@H]2O[C@H](C)C[C@H](N(C)C)[C@H]2O)[C@](C)(O)C[C@@H](C)C(=O)[C@H](C)[C@@H](O)[C@]1(C)O` [Erythromycin], the zone of inhibition (usually the extent of the growth-free halo in a diffusion test) at 15 µg/disc in assay [1] (setting [8]) turned out to be 11 mm; in assay [2] (setting [8]) it was 16 mm; in assay [3] (setting [9]), 21 mm; in assay [3] (setting [10]), 16 mm; in assay [4] (setting [8]) it was 8 mm.
Consider `CCn1cc(C(=O)O)c(=O)c2ccc(C)nc21` [Nalidixic acid], for which the zone of inhibition at 5 µg/disc was 14 mm in assay [1] (setting [8]); 12 mm in assay [1] (setting [11]); 20 mm in assay [2] (setting [8]); 17 mm in assay [2] (setting [11]); 21 mm in assay [3] (setting [9]); 18 mm in assay [3] (setting [10]). For the same compound, the zone of inhibition at 5 µg/disc in assay [4] (setting [8]) was found to be 14 mm; in assay [4] (setting [11]), 11 mm. In assay [6], the “suppression of lethality of IptFG(ch)” value is on record as “but not nalidixic acid (NA), suppressed the lethality of IptFG(ch)”.
